Test results from patent US7435837B2, “Dihydrobenzofuranyl alkanamine derivatives and methods for using same” (Wyeth, priority 2003, dated 2008).

Target: T1, human 5-hydroxytryptamine-2C (h5-HT2C) receptor (Homo sapiens, UniProt P28335)
T1 construct: expressed in transfected cells; host or cells: CHO (Chinese Hamster Ovary) cells; membranes
T1 sequence (P28335 33-458): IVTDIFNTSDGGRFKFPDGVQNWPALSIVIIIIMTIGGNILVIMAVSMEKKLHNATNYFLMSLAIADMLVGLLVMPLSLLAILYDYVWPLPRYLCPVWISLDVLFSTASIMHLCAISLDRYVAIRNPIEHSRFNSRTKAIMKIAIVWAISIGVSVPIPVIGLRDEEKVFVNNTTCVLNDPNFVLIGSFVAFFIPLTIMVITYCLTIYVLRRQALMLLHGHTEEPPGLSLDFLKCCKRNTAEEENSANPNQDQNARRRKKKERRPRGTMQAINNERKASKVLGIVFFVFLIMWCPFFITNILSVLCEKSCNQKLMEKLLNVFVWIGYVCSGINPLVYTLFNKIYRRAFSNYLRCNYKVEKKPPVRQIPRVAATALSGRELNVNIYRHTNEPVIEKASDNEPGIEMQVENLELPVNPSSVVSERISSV
Assay: [125I]DOI binding to membranes of CHO cells expressing the human 5-HT2C receptor
Conditions: [125I]DOI radioligand, CHO cell membranes, room temperature 60 min; read-out: 5-HT2C Affinity Ki

Structure (SMILES)	Ki [nM]
NCC1Cc2c(C(F)(F)F)ccc(Cl)c2O1 (racemic) [Example 14, (±)-[7-chloro-4-(trifluoromethyl)-2,3-dihydro-1-benzofuran-2-yl]methanamine]	78
NCC1Cc2cccc(Cc3ccccc3)c2O1 (racemic) [Example 15, (±)-1-(7-benzyl-2,3-dihydro-1-benzofuran-2-yl)methanamine]	222
COc1ccc2c(c1)OC(CN)C2 (racemic) [Example 30, (±)-1-(6-methoxy-2,3-dihydro-1-benzofuran-2-yl)methanamine]	191
NCC1Cc2ccc(-c3ccccc3)cc2O1 (racemic) [Example 31, (±)-(6-phenyl-2,3-dihydro-1-benzofuran-2-yl)methanamine]	1370
NCC1Cc2cccc(-c3cc(C(F)(F)F)cc(C(F)(F)F)c3)c2O1 (racemic) [Example 32, (±)-1-{7-[3,5-bis(trifluoromethyl)phenyl]-2,3-dihydro-1-benzofuran-2-yl}methanamine]	419
NCC1Cc2cccc(-c3cccc4ccccc34)c2O1 (racemic) [Example 33, (±)-1-[7-(1-naphthyl)-2,3-dihydro-1-benzofuran-2-yl]methanamine]	32
NCC1Cc2cccc(-c3ccccc3)c2O1 (racemic) [Example 36, (±)-1-(7-phenyl-2,3-dihydro-1-benzofuran-2-yl)methanamine]	15
NCC1Cc2cccc(-c3ccc4ccccc4c3)c2O1 (racemic) [Example 39, (±)-1-[7-(2-naphthyl)-2,3-dihydro-1-benzofuran-2-yl]methanamine]	43
NCC1Cc2cccc(-c3cc4ccccc4o3)c2O1 (racemic) [Example 40, (±)-1-(2′,3′-dihydro-2,7′-bi-1-benzofuran-2′-yl)methanamine]	122
NCC1Cc2cccc(-c3cccc(C(F)(F)F)c3)c2O1 (racemic) [Example 69, (±)-1-{7-[3-(trifluoromethyl)phenyl]-2,3-dihydro-1-benzofuran-2-yl}methanamine]	96
NCC1Cc2c(F)ccc(-c3ccccc3)c2O1 (racemic) [Example 98, (±)-1-(4-fluoro-7-phenyl-2,3-dihydro-1-benzofuran-2-yl)methanamine]	60
CC(C)(C)/C=C/c1cccc2c1OC(CN)C2 (racemic) [Example 117, (±)-1-{7-[(1E)-3,3-dimethylbut-1-enyl]-2,3-dihydro-1-benzofuran-2-yl}methanamine]	263
CC(C)(C)CCc1cccc2c1OC(CN)C2 (racemic) [Example 118, (±)-1-[7-(3,3-dimethylbutyl)-2,3-dihydro-1-benzofuran-2-yl]methanamine]	319
NCC1Cc2cccc(/C=C/c3ccccc3)c2O1 (racemic) [Example 119, (±)-1-{7-[(E)-2-phenylvinyl]-2,3-dihydro-1-benzofuran-2-yl}methanamine]	78
NCC1Cc2cccc(CCc3ccccc3)c2O1 (racemic) [Example 120, (±)-1-[7-(2-phenylethyl)-2,3-dihydro-1-benzofuran-2-yl]methanamine]	128

Continued, values first:

Ki [nM]	Structure (SMILES)
160	COc1cccc2c1OC(CN)C2 (racemic) [Example 7, (±)-1-(7-methoxy-2,3-dihydro-1-benzofuran-2-yl)methanamine]
106	NCC1Cc2cc(Cl)cc(C3CCCCC3)c2O1 (racemic) [Example 11, (±)-(5-chloro-7-cyclohexyl-2,3-dihydro-1-benzofuran-2-yl)methylamine]
127	CNCC1Cc2cc(Cl)cc(C3CCCCC3)c2O1 (racemic) [Example 12, (±)-N-[(5-chloro-7-cyclohexyl-2,3-dihydro-1-benzofuran-2-yl)methyl]-N-methylamine]
133	COc1cc2c(c(C(C)(C)C)c1)OC(CN)C2 (racemic) [Example 13, (±)-(7-tert-butyl-5-methoxy-2,3-dihydro-1-benzofuran-2-yl)methylamine]
36	CC(C)(C)c1cccc2c1OC(CN)C2 (racemic) [Example 24, (±)-1-(7-tert-butyl-2,3-dihydro-1-benzofuran-2-yl)methanamine]
37	NCC1Cc2cccc(-c3ccc(F)c(Cl)c3)c2O1 (racemic) [Example 34, (±)-1-[7-(3-chloro-4-fluorophenyl)-2,3-dihydro-1-benzofuran-2-yl]methanamine]
141	NCC1Cc2cccc(-c3cc(Cl)cc(Cl)c3)c2O1 (racemic) [Example 35, (±)-1-[7-(3,5-dichlorophenyl)-2,3-dihydro-1-benzofuran-2-yl]methanamine]
25	Cc1cccc(-c2cccc3c2OC(CN)C3)c1 (racemic) [Example 41, (±)-1-[7-(3-methylphenyl)-2,3-dihydro-1-benzofuran-2-yl]methanamine]
11	NCC1Cc2cc(Cl)cc(-c3ccccc3)c2O1 (racemic) [Example 84, (±)-1-(5-chloro-7-phenyl-2,3-dihydro-1-benzofuran-2-yl)methanamine]
48	Cc1cccc(-c2cc(Cl)cc3c2OC(CN)C3)c1 (racemic) [Example 88, (±)-1-[5-chloro-7-(3-methylphenyl)-2,3-dihydro-1-benzofuran-2-yl]methanamine]
40	NCC1Cc2cc(Cl)cc(-c3cccc(Cl)c3)c2O1 (racemic) [Example 89, (±)-1-[5-chloro-7-(3-chlorophenyl)-2,3-dihydro-1-benzofuran-2-yl]methanamine]
8	NCC1Cc2cc(Cl)cc(-c3ccsc3)c2O1 (racemic) [Example 90, (±)-(5-chloro-7-thien-3-yl-2,3-dihydro-1-benzofuran-2-yl)methylamine]
26	COc1cc(Cl)cc2c1OC(CN)C2 (racemic) [Example 111, (±)-1-(5-chloro-7-methoxy-2,3-dihydro-1-benzofuran-2-yl)methanamine]
55	CC1(CN)Cc2cc(Cl)cc(-c3ccccc3)c2O1 (racemic) [Example 112, (±)-1-(5-chloro-2-methyl-7-phenyl-2,3-dihydro-1-benzofuran-2-yl)methanamine]
130	CC1(CN)Cc2cc(Cl)cc(-c3ccsc3)c2O1 (racemic) [Example 113, (±)-(5-chloro-2-methyl-7-thien-3-yl-2,3-dihydro-1-benzofuran-2-yl)methylamine]
471	CC1(CN)Cc2cc(Cl)cc(-c3cccs3)c2O1 (racemic) [Example 114, (±)-(5-chloro-2-methyl-7-thien-2-yl-2,3-dihydro-1-benzofuran-2-yl)methylamine]

Target: T2, human 5-HT2C receptor (Homo sapiens, UniProt P28335)
T2 sequence (P28335 33-458): T1 sequence (P28335 33-458)
Assay: 5-HT2C receptor-stimulated calcium mobilization (FLIPR) in CHO cells;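 further: Fluo-3-AM fluorescence read on FLIPR every 1 s, agonist added after 10 baseline reads, response taken as peak minus lowest raw fluorescence count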
Assay type: cell-based
Conditions: CHO, percentage of the response observed with a maximally effective concentration of 5-HT; read-out: 5-HT2C Function Emax (%)

Structure (SMILES)	Emax [%]
COc1cccc(-c2cc(C)cc3c2OC(CN)C3)c1OC (single isomer, unassigned; (-)) [Example 295, (−)-{[7-(2,3-dimethoxyphenyl)-5-methyl-2,3-dihydro-1-benzofuran-2-yl]methyl}amine]	90
CNCC1Cc2cc(Cl)cc(-c3c(C)cccc3C)c2O1 (single isomer, unassigned; (-)) [Example 564, (−)-{[5-chloro-7-(2,6-dimethylphenyl)-2,3-dihydro-1-benzofuran-2-yl]methyl}methylamine]	90
CNCC1Cc2cc(F)cc(-c3cccc(OC)c3OC)c2O1 (single isomer, unassigned; (-)) [Example 568, (−)-{[7-(2,3-dimethoxyphenyl)-5-fluoro-2,3-dihydro-1-benzofuran-2-yl]methyl}methylamine]	80
NC[C@H]1Cc2cc(F)cc(-c3c(Cl)cccc3Cl)c2O1 [Example 550, (−)-{[7-(2,6-dichlorophenyl)-5-fluoro-2,3-dihydro-1-benzofuran-2-yl]methyl}amine]	100

Same assay, conditions: CHO, read-out: 5-HT2C Function Emax (%), percentage of the response observed with a maximally effective concentration of 5-HT

Structure (SMILES)	Emax [%]
CNCC1Cc2cc(F)cc(-c3ccc(Cl)cc3Cl)c2O1 (single isomer, unassigned; (-)) [Example 446]	70

Same assay, conditions: calcium mobilization, CHO cells stably expressing human 5-HT2C; read-out: 5-HT2C Function EC50

Structure (SMILES)	EC50 [nM]
CNCC1Cc2cc(F)cc(-c3ccc(Cl)cc3Cl)c2O1 (single isomer, unassigned; (-)) [Example 446]	460
CNCC1Cc2cc(F)cc(-c3c(Cl)cccc3Cl)c2O1 (single isomer, unassigned; (-)) [Example 544, (−){[7-(2,6-dichlorophenyl)-5-fluoro-2,3-dihydro-1-benzofuran-2-yl]methyl}methylamine]	73

Now from value to compound:

EC50 [nM]	Structure (SMILES)
8	COc1cccc(-c2cc(C)cc3c2OC(CN)C3)c1OC (single isomer, unassigned; (-)) [Example 295, (−)-{[7-(2,3-dimethoxyphenyl)-5-methyl-2,3-dihydro-1-benzofuran-2-yl]methyl}amine]
283	COc1cc2c(c(-c3cc(Cl)ccc3Cl)c1)OC(CN)C2 (single isomer, unassigned; (-)) [Example 369, (−)-{[7-(2,5-dichlorophenyl)-5-methoxy-2,3-dihydro-1-benzofuran-2-yl]methyl}amine]
135	CNCC1Cc2cc(Cl)cc(-c3cc(Cl)ccc3Cl)c2O1 (single isomer, unassigned; (-)) [Example 563, (−)-{[5-chloro-7-(2,5-dichlorophenyl)-2,3-dihydro-1-benzofuran-2-yl]methyl}methylamine]
43	CNCC1Cc2cc(Cl)cc(-c3c(C)cccc3C)c2O1 (single isomer, unassigned; (-)) [Example 564, (−)-{[5-chloro-7-(2,6-dimethylphenyl)-2,3-dihydro-1-benzofuran-2-yl]methyl}methylamine]
9	CNCC1Cc2cc(C)cc(-c3cccc(OC)c3OC)c2O1 (single isomer, unassigned; (-)) [Example 567, (−)-{[7-(2,3-dimethoxyphenyl)-5-methyl-2,3-dihydro-1-benzofuran-2-yl]methyl}methylamine]
4	CNCC1Cc2cc(F)cc(-c3cccc(OC)c3OC)c2O1 (single isomer, unassigned; (-)) [Example 568, (−)-{[7-(2,3-dimethoxyphenyl)-5-fluoro-2,3-dihydro-1-benzofuran-2-yl]methyl}methylamine]

Same assay, conditions: percentage of the response observed with a maximally effective concentration of 5-HT

Structure (SMILES)	5-HT2C Function Emax (%)
COc1cc2c(c(-c3cc(Cl)ccc3Cl)c1)OC(CN)C2 (single isomer, unassigned; (-)) [Example 369, (−)-{[7-(2,5-dichlorophenyl)-5-methoxy-2,3-dihydro-1-benzofuran-2-yl]methyl}amine]	90
CNCC1Cc2cc(F)cc(-c3c(Cl)cccc3Cl)c2O1 (single isomer, unassigned; (-)) [Example 544, (−){[7-(2,6-dichlorophenyl)-5-fluoro-2,3-dihydro-1-benzofuran-2-yl]methyl}methylamine]	70
CNCC1Cc2cc(Cl)cc(-c3cc(Cl)ccc3Cl)c2O1 (single isomer, unassigned; (-)) [Example 563, (−)-{[5-chloro-7-(2,5-dichlorophenyl)-2,3-dihydro-1-benzofuran-2-yl]methyl}methylamine]	70
CNCC1Cc2cc(C)cc(-c3cccc(OC)c3OC)c2O1 (single isomer, unassigned; (-)) [Example 567, (−)-{[7-(2,3-dimethoxyphenyl)-5-methyl-2,3-dihydro-1-benzofuran-2-yl]methyl}methylamine]	60
